Target: T1, mu opiate receptor (MOR) (Rattus norvegicus, UniProt P33535)
T1 construct: from tissue; host or cells: striatum (membrane preparation)
Format: biochemical
Settings: for Concentration of FLNA-Binding Compound as Agonist 0.1 μM / Concentration of FLNA-Binding Compound as Agonist 1 μM / Concentration of FLNA-Binding Compound as Agonist 1 μM + BFNA: [35S]GTPγS binding to Gαo in striatal membranes; for Concentration of FLNA-Binding Compound as Agonist 0.1 μM: compound 0.1 μM; for Concentration of FLNA-Binding Compound as Agonist 1 μM: compound 1 μM; for Concentration of FLNA-Binding Compound as Agonist 1 μM + BFNA: compound 1 μM plus 1 μM β-funaltrexamine (MOR antagonist)
Description: To assess the mu opiate receptor (MOR) agonist activity of positive compounds from the FLNA screening, compounds were tested in a [^35S]GTPγS binding assay using striatal membranes. […] This assay measures a functional consequence of receptor occupancy at one of the earliest receptor-mediated events. The assay permits for traditional pharmacological parameters of potency, efficacy and antagonist affinity, with the advantage that agonist measures are not subjected to amplification or other modulation that may occur when analyzing parameters further downstream of the receptor.
Thus, striatal tissue was homogenized in 10 volumes of ice cold 25 mM HEPES buffer, pH 7.4, which contained 1 mM EGTA, 100 mM sucrose, 50 μg/ml leupeptin, 0.04 mM PMSF, 2 μg/ml soybean trypsin inhibitor and 0.2% 2-mercaptoethanol. The homogenates were centrifuged at 800×g for 5 minutes and the supernatants were centrifuged at 49,000×g for 20 minutes.
The resultant striatal membrane preparation (200 μg) was admixed and maintained (incubated) at 30° C. for 5 minutes in reaction buffer as above that additionally contained 1 mM MgCl2 and 0.5 nM [^35S]GTPγS (0.1 μCi/assay, PerkinElmer Life and Analytical Sciences) in a total volume of 250 μl and continued for 5 minutes in the absence or presence of 0.1-10 μM of an assayed compound of interest. The reaction was terminated by dilution with 750 μl of ice-cold reaction buffer that contained 20 mM MgCl2 and 1 mM EGTA and immediate centrifugation at 16,000×g for 5 minutes.
Normal rabbit serum (1 μl) was added to 1 ml of lysate and incubated at 25° C. for 30 minutes. Nonspecific immune complexes were removed by incubation with 25 μl of protein A/G-conjugated agarose beads at 25° C. for 30 minutes followed by centrifugation at 5,000×g at 4° C. for 5 minutes. The supernatant was divided and separately incubated at 25° C. for 30 minutes with antibodies raised against Gαo proteins (1:1,000 dilutions).
The immunocomplexes so formed were collected by incubation at 25° C. for 30 minutes with 40 μl of agarose-conjugated protein A/G beads and centrifugation at 5,000×g at 4° C. for 5 minutes. The pellet was washed and suspended in buffer containing 50 mM Tris-HCl, pH 8.0, and 1% NP-40. The radioactivity in the suspension was determined by liquid scintillation spectrometry.

T1 sequence (P33535 whole entry): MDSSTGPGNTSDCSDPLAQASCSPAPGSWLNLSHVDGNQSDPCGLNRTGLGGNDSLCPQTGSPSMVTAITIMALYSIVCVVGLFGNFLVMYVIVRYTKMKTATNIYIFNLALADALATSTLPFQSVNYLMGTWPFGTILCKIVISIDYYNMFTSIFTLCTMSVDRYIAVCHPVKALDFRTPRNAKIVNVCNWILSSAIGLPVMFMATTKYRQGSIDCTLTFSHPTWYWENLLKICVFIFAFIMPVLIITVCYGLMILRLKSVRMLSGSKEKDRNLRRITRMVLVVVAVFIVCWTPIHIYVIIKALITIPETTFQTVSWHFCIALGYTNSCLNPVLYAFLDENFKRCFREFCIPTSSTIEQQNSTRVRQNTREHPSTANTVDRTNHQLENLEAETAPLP

| SMILES | % DAMGO (0.1 μM) [%] | % DAMGO (1 μM) [%] | % DAMGO + BFNA [%] | Concentration of FLNA-Binding Compound as Agonist 0.1 μM [%] | Concentration of FLNA-Binding Compound as Agonist 1 μM [%] | Concentration of FLNA-Binding Compound as Agonist 1 μM + BFNA [%] |
| --- | --- | --- | --- | --- | --- | --- |
| CC1CCC(C(C)C)C(OCC(O)CN2CCN(C)CC2)C1 (stereo not drawn) [Compound A0009] | 39.8 | 48.7 | 142.9 | 70.2 | 126.4 | 93.9 |
| CC1CCC(C(C)C)C(OCC(O)CN2CCCN(C)CC2)C1 (stereo not drawn) [Compound A0010] | 161.9 | 119.5 | 365.3 | 277.2 | 319.0 | 190.3 |
| CC1CCC(C(C)C)C(OCC(O)CN2CCN(CCN3CCOCC3)CC2)C1 (stereo not drawn) [Compound A0011] | 158.2 | 124.9 | 177.4 | 236.3 | 287.5 | 47.0 |
| COc1ccc(N2CCN(CC(O)COC3CC(C)CCC3C(C)C)CC2)c(OC)c1 (stereo not drawn) [Compound A0012] | 99.9 | 80.7 | 461.9 | 149.3 | 185.7 | 122.4 |
| CC1CCC(C(C)C)C(OCC(O)CN2CCCCCC2)C1 (stereo not drawn) [Compound A0013] | 57.8 | 63.6 | 131.1 | 102.1 | 164.8 | 86.1 |
| CC1CCC(C(C)C)C(OCC(O)CN2CCCCCCC2)C1 (stereo not drawn) [Compound A0014] | 83.2 | 67.5 | 214.3 | 147.0 | 174.9 | 140.8 |
| CC1CCC(C(C)C)C(OCC(O)CN2CCC2)C1 (stereo not drawn) [Compound A0015] | 64.8 | 56.2 | 120.0 | 110.9 | 150.1 | 62.5 |
| CC1CN(CC(O)COC2CCCCC2)CC(C)O1 (stereo not drawn) [Compound A0017] | 96.9 | 100.4 | 187.9 | 161.9 | 246.0 | 65.2 |
| CC1CCC(C(C)C)C(OCC(O)CN2CCN(CCc3ccccc3)CC2)C1 (stereo not drawn) [Compound A0020] | 100.9 | 88.7 | 194.2 | 168.6 | 217.4 | 67.4 |
| CC1CCCC(OCC(O)CN2CC(C)OC(C)C2)C1 (stereo not drawn) [Compound A0021] | 79.8 | 112.4 | 34.9 | 133.3 | 275.3 | 12.1 |
| CC1CCC(C)C(OCC(O)CN2CC(C)OC(C)C2)C1 (stereo not drawn) [Compound A0022] | 90.0 | 80.9 | 53.7 | 154.1 | 216.0 | 28.0 |
| CC1CN(CC(O)COc2ccccc2)CC(C)O1 (stereo not drawn) [Compound A0025] | 33.2 | 54.5 | 198.5 | 58.6 | 138.7 | 52.2 |

From patent US10760052B2, “Method of inhibiting tau phosphorylation” (priority 2012, dated 2020)
